Measured values as given in US12304890B2, “R-type pyridyloxycarboxylic acid, salt and ester derivative thereof, and preparation method therefor, and herbicidal composition and application thereof” (Qingdao Kingagroot Chemical Compound Co., Ltd., priority 2018, dated 2025).

Legend:
Format in all cases: in vivo
Echinochloa crusgalli = test: Post-emergence test experiment, Echinochloa crusgalli; settings: 1000 g a.i./ha, 3 weeks in greenhouse, fresh weight inhibition
Summary of the method: (§1)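 Growth inhibition is given as reduction in fresh weight, assessed 3 weeks post-treatment in the greenhouse. Spray solutions (acetone, tween-80, water, with 1.5 L/ha methyl oleate concentrate synergist) were applied to weeds and crops at 2-3 leaves, 2 weeks from sowing.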

Digitaria sanguinalis = test: Post-emergence test experiment, Digitaria sanguinalis; settings: 1000 g a.i./ha, 3 weeks in greenhouse, fresh weight inhibition
Summary of the method: as §1

[1] = test system: Monocotyledonous and dicotyledonous weed seeds and main crop seeds; test: Post-emergence test experiment, other weeds and crops (Table 4, 1000 g a.i./ha); settings: 3 weeks in greenhouse, fresh weight inhibition
Summary of the method: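 Growth inhibition is scored on fresh weight. Spray solutions were made in acetone with tween-80, diluted in water, plus 1.5 L/ha methyl oleate emulsible concentrate. Plants from greenhouse-grown weed and crop seeds were treated post-emergence at 2-3 leaves, 2 weeks after sowing.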

Structure (SMILES) | Activity level (growth inhibition rate), Echinochloa crusgalli (Echinochloa crusgalli) | Activity level (growth inhibition rate), Digitaria sanguinalis (Digitaria sanguinalis) | Activity level (growth inhibition rate), Abutilon theophrasti Medic. [1] | Activity level (growth inhibition rate), Galium aparine [1] | Activity level (growth inhibition rate), Monochoria Vaginalis [1]
C[C@@H](Oc1nc(F)c(Cl)c(N)c1Cl)C(=O)OCc1cccc(C#N)c1 [Compound 2-335] | 5 (Level 5: the growth inhibition rate is greater than 85%) | 5 (Level 5: the growth inhibition rate is greater than 85%) | 5 (Level 5: the growth inhibition rate is greater than 85%) | 5 (Level 5: the growth inhibition rate is greater than 85%) | 5 (Level 5: the growth inhibition rate is greater than 85%)
CC(Oc1nc(F)c(Cl)c(N)c1Cl)C(=O)OCc1cccc(F)c1 (centres unmarked) [Compound 2-310] | 5 (Level 5: the growth inhibition rate is greater than 85%) | 5 (Level 5: the growth inhibition rate is greater than 85%) | 5 (Level 5: the growth inhibition rate is greater than 85%) | 5 (Level 5: the growth inhibition rate is greater than 85%) | 5 (Level 5: the growth inhibition rate is greater than 85%)
CCCCCCCCCCCSC(=O)[C@@H](C)Oc1nc(F)c(Cl)c(N)c1Cl [Compound 2-216] | 5 (Level 5: the growth inhibition rate is greater than 85%) | 5 (Level 5: the growth inhibition rate is greater than 85%) | 5 (Level 5: the growth inhibition rate is greater than 85%) | 5 (Level 5: the growth inhibition rate is greater than 85%) | 5 (Level 5: the growth inhibition rate is greater than 85%)
CCCC(C)CSC(=O)[C@@H](C)Oc1nc(F)c(Cl)c(N)c1Cl (some centres unmarked) [Compound 2-104] | 5 (Level 5: the growth inhibition rate is greater than 85%) | 5 (Level 5: the growth inhibition rate is greater than 85%) | 5 (Level 5: the growth inhibition rate is greater than 85%) | 5 (Level 5: the growth inhibition rate is greater than 85%) | 5 (Level 5: the growth inhibition rate is greater than 85%)
C1COCCN1.CC(Oc1nc(F)c(Cl)c(N)c1Cl)C(=O)O (centres unmarked) [Compound 2-24] | 5 (Level 5: the growth inhibition rate is greater than 85%) | 5 (Level 5: the growth inhibition rate is greater than 85%) | 5 (Level 5: the growth inhibition rate is greater than 85%) | 5 (Level 5: the growth inhibition rate is greater than 85%) | 5 (Level 5: the growth inhibition rate is greater than 85%)
CCCCCCCSC(=O)[C@@H](C)Oc1nc(F)c(Cl)c(N)c1Cl [Compound 2-122] | 5 (Level 5: the growth inhibition rate is greater than 85%) | 5 (Level 5: the growth inhibition rate is greater than 85%) | 5 (Level 5: the growth inhibition rate is greater than 85%) | 5 (Level 5: the growth inhibition rate is greater than 85%) | 5 (Level 5: the growth inhibition rate is greater than 85%)
CCOCOC(=O)[C@@H](C)Oc1nc(F)c(Cl)c(N)c1Cl [Compound 2-370] | 5 (Level 5: the growth inhibition rate is greater than 85%) | 5 (Level 5: the growth inhibition rate is greater than 85%) | 5 (Level 5: the growth inhibition rate is greater than 85%) | 5 (Level 5: the growth inhibition rate is greater than 85%) | 5 (Level 5: the growth inhibition rate is greater than 85%)
